The values below come from patent US12383526B2, “Optimized sigma-1 agonist method of responder selection and treatment” (ANAVEX LIFE SCIENCES CORP., priority 2018, dated 2025).

For series [1] the following is noted: Phase 1 study; 1-60 mg range; male healthy subjects; cited from earlier work.
The subject of series [2] is cholinergic muscarinic receptors. The settings on record: mice; cited from earlier work.
The test system of series [3] is subjects with mild-to-moderate AD. Nature of the series: MMSE (Mini Mental State Examination) change from baseline, 57-week Phase 2a study and 208-week extension study. In kind it is in vivo, human. As to conditions: for MMSE Cohen's d: week 57, compared to standard of care. An excerpt: The present study integrates and analyzes data and samples from two consecutive clinical trials: 57-week study and 208-week study. 57-week study was a multicenter Phase 2a clinical trial of the drug ANAVEX2-73 that recruited a sample of 32 subjects with mild-to-moderate AD. It consisted of two parts: Part A was a simple randomized, open-label, two-period, cross-over, adaptive trial lasting up to 5 weeks. Each period involved one specific administration route and two possible dose levels: in one period the oral dose (30 mg or 50 mg) was administrated and in the other period an intravenous (IV) form (3 mg or 5 mg) was administered, making a total of 8 possible dose administration schemes in Part A (details available in FIG. 2A). The two periods were separated by a wash-out period of 12 days where no dose was given.
Part B, following immediately after Part A, was an open-label extension of the oral daily dose for an additional 52 weeks. The primary endpoint of 57-week study was to establish the safety and tolerability of the drug. Secondary endpoints aimed at establishing the relationship between dosing regimen and pharmacodynamics-exploratory efficacy outcomes of cognition and function. Cognition was assessed by the Mini Mental State Examination (MMSE), while functional abilities by the Alzheimer's Disease Co-operative Study—Activities of Daily Living Inventory (ADCS-ADL). Additional cognitive measures included the Cogstate Brief Battery (CBB), and functional measures of Electroencephalography and Event-Related Potential (EEG and ERP). Part B continued an adaptive oral administration scheme. Table 12 summarizes mean oral dose administration during the 57-week study study.
Due to favorable safety and tolerability profile of the 57-week study (Table 2), and in response to requests from patients and caregivers, a 208-week open-label extension study (208-week study) was carried out immediately after completion of 57-week study Part B. 208-week study enrolled the 24 subjects who completed Part B and applied similarly an adaptive daily oral administration scheme. ANAVEX2-73-003 involves continuous evaluation of safety and efficacy as measured by the MMSE and ADCS-ADL. At week 148 (interim time point for analyses), data on the subjects remaining in the study (n=21) was analyzed for efficacy outcomes. This report was drafted using data available at week 148, while ANAVEX2-73-003 is still ongoing.
Exploratory clinical efficacy in this study was defined as change from baseline of each patient's cognitive (MMSE) and functional ability (ADCS-ADL) scores. The MMSE57 is a widely used, validated instrument in clinical AD research, including as a cognitive outcome measure in drug trials. The range of the scale is from 0 to 30, with a higher score indicating higher cognitive function. The ADCS-ADL58 is undertaken in a structured caregiver interview format and assesses performance in activities of daily living of patients with AD. The scale is from 0 to 78, with a higher score indicating greater function. The ADCS-ADL has shown to have good test-retest reliability 59. The MMSE and the ADCS-ADL were assessed during pre-specified clinical site visits across 14 different time points during the 57-week study (Weeks 0 and 5 in Part A; Weeks 17, 31, 41, 53, and 57 in Part B), and 208-week study (Weeks 70, 83, 96, 109, 122, 135, and 148) studies.
Corresponding Delta scores were calculated using the difference between values at each visit and at baseline for each individual patient, with a focus on Week 57. In addition, to lower the impact of noise in MMSE and ADCS-ADL scores, a Slope was estimated using a linear regression across all available time points for each individual patient. The derived scores describe the progression of exploratory efficacy data from baseline at several specific time points (Deltas) and over a set period of time (Slope). […]

The target in the next series is T1, SIGMAR1 (Mus musculus, UniProt O55242).
T1 construct: from tissue; host or cells: living mice (in vivo PET)
The settings on record: mice; cited from earlier work.

Setting [4] is: Absence of COMT_L146fs variant & Baseline MMSE ≥20, N 11.
The mark [5] stands for this setting: Absence of COMT_L146fs variant, N 16.
Where [6] appears, read: Absence of SIGMAR1_Q2P variant, N 16.
Where [7] appears, read: Absence of SIGNAR1_Q2P variant & Baseline MMSE ≥20, N 11.

Marks after values point to notes of the source that are not given here.

T1 sequence (O55242 whole entry): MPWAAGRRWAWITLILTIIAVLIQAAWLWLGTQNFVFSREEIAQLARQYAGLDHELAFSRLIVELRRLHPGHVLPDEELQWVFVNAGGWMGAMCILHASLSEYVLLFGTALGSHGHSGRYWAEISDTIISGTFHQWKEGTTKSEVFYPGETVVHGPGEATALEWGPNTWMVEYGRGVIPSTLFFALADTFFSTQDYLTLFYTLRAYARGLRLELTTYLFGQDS

With `CN(C)CC1CCOC1(c1ccccc1)c1ccccc1.Cl` (stereo not shown) [ANAVEX2-73, tetrahydro-N,N-dimethyl-2,2-diphenyl-3-furanmethanamine hydrochloride], the “relationship between dose and plasma concentration” value in series [1] was “linear”. In addition, the “modulation of cholinergic muscarinic receptors” value in series [2] is “modulate cholinergic muscarinic receptors”. The “MMSE Mean Δ at 57 weeks” value was 0.18 ± 4.35 in series [3] (setting [4]); −0.62 ± 4.05 in series [3] (setting [5]); 0.50 ± 4.45 in series [3] (Absence of SIGMAR1_Q2P variant & Absence of COMT_L145fs variant & Baseline MMSE ≥20, N 10); −0.62 ± 4.11 in series [3] (setting [6]); 0.27 ± 4.29 in series [3] (setting [7]); −1.52 ± 4.15 in series [3] (All, N 21). For the same compound, the “MMSE Mean Δ at 57 weeks” value in series [3] (Baseline MMSE ≥20, N 13) is −0.15 ± 4.06. Moreover, the “favorable difference in adjusted MMSE, higher concentration arm compared with low/medium arm” value in series [3] (MMRM-LME, over 148 weeks) turned out to be 78%. Also, the “MMSE Cohen's d” value in series [3] (setting [4]) is on record as 0.98**; in series [3] (setting [5]) it was 0.81**; in series [3] (setting [6]), 0.81**; in series [3] (setting [7]), 1.01**; in series [3] (Baseline MMSE ≥20, N 13), 0.94**. The “target binding by PET scan” value at SIGMAR1 was “directly bind its target”.
